From patent US20220169654A1, “New Organic Compounds” (Servier Pharmaceuticals LLC, priority 2020, published 2022)

Experiments:
HCT116 MTAP−/− = test: Inhibition of cellular proliferation, 4 days, Cell Titer Glo, HCT116 MTAP−/−; assay type: cell-based; conditions: Homo sapiens, HCT-116, 96 h, IC50 bin with Max Inh., read-out: 4 Day Relative Growth Inhibition (MTAP −/−)
Summary of the method: (§1)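 Isogenic HCT116 pair differing only in MTAP status, plated 24 h before treatment with 10-point 3-fold dilutions; 4 days at 37° C./5% CO2. Cell Titer Glo luminescence, blank-subtracted and normalised to 0.2% DMSO control, gives percentage proliferation vs log molar concentration for IC50.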

HCT116 MTAP+/+ = test: Inhibition of cellular proliferation, 4 days, Cell Titer Glo, HCT116 MTAP+/+; assay type: cell-based; conditions: Homo sapiens, HCT-116, 96 h, IC50 bin with Max Inh., read-out: 4 Day Relative Growth Inhibition (MTAP +/+)
Summary of the method: as §1

MAT2A homodimer = molecular target: T1, MAT2A homodimer (Homo sapiens, UniProt P31153); test: MAT2A inhibition (biochemical, liberated phosphate, PiColorLock Gold); conditions: recombinant MAT2A homodimer; IC50 bin with Max Inh.; read-out: Enzyme Inhibition Bin
T1 construct: inferred from Ni sepharose purification with imidazole elution; made in house; host or cells: Sf9 insect cells, baculovirus (Bac to Bac, pFASTBAC1)
T1 sequence (P31153 whole entry): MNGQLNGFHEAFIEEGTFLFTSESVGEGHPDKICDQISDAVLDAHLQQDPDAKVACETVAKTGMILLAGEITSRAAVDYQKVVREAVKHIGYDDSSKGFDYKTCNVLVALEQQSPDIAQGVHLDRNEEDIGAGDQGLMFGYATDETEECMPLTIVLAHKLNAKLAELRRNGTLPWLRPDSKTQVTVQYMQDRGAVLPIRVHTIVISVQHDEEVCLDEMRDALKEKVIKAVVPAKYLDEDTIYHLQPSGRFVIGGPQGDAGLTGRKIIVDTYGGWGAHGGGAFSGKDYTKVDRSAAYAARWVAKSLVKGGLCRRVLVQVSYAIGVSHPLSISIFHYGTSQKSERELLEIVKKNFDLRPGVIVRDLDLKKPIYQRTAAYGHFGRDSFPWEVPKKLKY
Summary of the method: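 Baculovirus/Sf9-expressed, Ni-purified MAT2A (4 μg/mL) preincubated with compound 60 min at 25 °C in Tris pH 8.0/KCl/MgCl2 buffer. Reaction started with 500 μM ATP and 400 μM L-methionine (substrate-mix concentrations), run 60 min at 25 °C. Phosphate measured colorimetrically against a phosphate standard curve to give IC50.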

[1] = system: SAM in HCT116 human colon carcinoma cell line with MTAP gene deleted (MTAP −/−); test: Cellular assay of target engagement (SAM), LC-MS/MS, 72 hrs; assay type: cell-based; conditions: HCT-116, IC50 bin with Max Inh., read-out: Cell 72 h SAM Inhibition (MTAP −/−)
Summary of the method: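 MTAP-deleted HCT116 cells plated 24 h, then given 10-point 3-fold dilutions for 72 hrs at 37° C. Intracellular SAM extracted in cold 80% methanol with 1M acetic acid and d3-SAM standard, quantified by LC-MS/MS (MRM m/z 399.2→250.1); IC50 derived.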

Row | SMILES | IC50 (HCT116 MTAP−/−) [nM] | IC50 (HCT116 MTAP+/+) [nM] | IC50 (MAT2A homodimer) [nM] | IC50 [1] [nM]
1 | COC1CC=C(n2nc3ccn(CC4CC4)c3c(-c3ccc(OC(F)F)cc3)c2=O)CC1 (stereo not drawn) [Example 230, 5-(cyclopropylmethyl)-4-(4-(difluoromethoxy)phenyl)-2-(4-methoxycyclohex-1-en-1-yl)-2,5-dihydro-3H-pyrrolo[3,2-c]pyridazin-3-one] | 100 to 1000 | > 1000 | < 100 | 100 to 1000
2 | Cn1cc2cc(-n3nc4c(C#N)cn(CC5CCC5)c4c(-c4ccc(C5CC5)nc4)c3=O)ccc2n1 [Example 159, 5-(cyclobutylmethyl)-4-(6-cyclopropylpyridin-3-yl)-2-(2-methyl-2H-indazol-5-yl)-3-oxo-3,5-dihydro-2H-pyrrolo[3,2-c]pyridazine-7-carbonitrile] | 100 to 1000 | > 1000 | < 100 | < 100
3 | Cn1cc2cc(-n3nc4nnn(CC5CC5)c4c(-c4ccc(C5CC5)nc4)c3=O)ccc2n1 [Example 210, 1-(cyclopropylmethyl)-7-(6-cyclopropylpyridin-3-yl)-5-(2-methyl-2H-indazol-5-yl)-1,5-dihydro-6H-[1,2,3]triazolo[4,5-c]pyridazin-6-one] | 100 to 1000 | > 1000 | 100 to 1000 | > 1000
4 | Cn1cc2cc(-n3nc4c(c(-c5ccc(Cl)cc5)c3=O)n(CC3CC3)c(=O)n4C)ccc2n1 [Example 199, 4-(4-chlorophenyl)-5-(cyclopropylmethyl)-7-methyl-2-(2-methyl-2H-indazol-5-yl)-2,7-dihydro-3H-imidazo[4,5-c]pyridazine-3,6(5H)-dione] | < 100 | > 1000 | < 100 | < 100
5 | COc1ccc(-c2c(=O)n(-c3ccc4nn(C)cc4c3)nc3c(C#N)cn(CC4CC4)c23)cn1 [Example 111, 5-(cyclopropylmethyl)-4-(6-methoxypyridin-3-yl)-2-(2-methyl-2H-indazol-5-yl)-3-oxo-3,5-dihydro-2H-pyrrolo[3,2-c]pyridazine-7-carbonitrile] | < 100 | > 1000 | < 100 | < 100
6 | Cc1ccc(-c2c(=O)n(-c3ccc4nn(C)cc4c3)nc3cnn(CC4CC4)c23)cn1 [Example 222, 1-(cyclopropylmethyl)-5-(2-methyl-2H-indazol-5-yl)-7-(6-methylpyridin-3-yl)-1,5-dihydro-6H-pyrazolo[4,3-c]pyridazin-6-one] | 100 to 1000 | > 1000 | < 100 | 100 to 1000
7 | [2H]C([2H])([2H])Oc1ccc(-n2nc3ccn(CC4CC4)c3c(-c3ccc(C(F)F)nc3)c2=O)cc1 [Example 132, 5-(cyclopropylmethyl)-4-(6-(difluoromethyl)pyridin-3-yl)-2-(4-(methoxy-d3)phenyl)-2,5-dihydro-3H-pyrrolo[3,2-c]pyridazin-3-one] | 100 to 1000 | > 1000 | < 100 | 100 to 1000
8 | CC(C)c1ccc(-c2c(=O)n(-c3ccc4nn(C)cc4c3)nc3ccn(CC4CC4)c23)cn1 [Example 129, 5-(cyclopropylmethyl)-4-(6-isopropylpyridin-3-yl)-2-(2-methyl-2H-indazol-5-yl)-2,5-dihydro-3H-pyrrolo[3,2-c]pyridazin-3-one] | < 100 | > 1000 | < 100 | 100 to 1000
9 | [2H]C([2H])([2H])Oc1ccc(-c2c(=O)n(-c3ccc4nn(C)cc4c3)nc3c(C(=O)NC)cn(CC4CC4)c23)cc1 [Example 174, 5-(cyclopropylmethyl)-4-(4-(methoxy-d3)phenyl)-N-methyl-2-(2-methyl-2H-indazol-5-yl)-3-oxo-3,5-dihydro-2H-pyrrolo[3,2-c]pyridazine-7-carboxamide] | < 100 | 100 to 1000 | < 100 | < 100
10 | CCc1cn(CC2CC2)c2c(-c3ccc(C4CC4)nc3)c(=O)n(-c3ccc4nn(C)cc4c3)nc12 [Example 247, 5-(cyclopropylmethyl)-4-(6-cyclopropylpyridin-3-yl)-7-ethyl-2-(2-methyl-2H-indazol-5-yl)-2,5-dihydro-3H-pyrrolo[3,2-c]pyridazin-3-one] | < 100 | > 1000 | < 100 | < 100
11 | Cc1ccc(-c2c(=O)n(-c3ccc4nn(C)cc4c3)nc3c(F)cn(CC4CC4)c23)cn1 [Example 237, 5-(cyclopropylmethyl)-7-fluoro-2-(2-methyl-2H-indazol-5-yl)-4-(6-methylpyridin-3-yl)-2,5-dihydro-3H-pyrrolo[3,2-c]pyridazin-3-one] | < 100 | 100 to 1000 | < 100 | < 100
12 | O=c1c(-c2ccc(OC(F)F)cc2)c2c(ccn2CC2CC2)nn1-c1ccc2ncccc2c1 [Example 225, 5-(cyclopropylmethyl)-4-(4-(difluoromethoxy)phenyl)-2-(quinolin-6-yl)-2,5-dihydro-3H-pyrrolo[3,2-c]pyridazin-3-one] | < 100 | 100 to 1000 | < 100 | < 100
13 | Cn1cc2cc(-n3nc4c(S(N)(=O)=O)cn(CC5CC5)c4c(-c4ccc(C5CC5)cc4)c3=O)ccc2n1 [Example 180, 5-(cyclopropylmethyl)-4-(4-cyclopropylphenyl)-2-(2-methyl-2H-indazol-5-yl)-3-oxo-3,5-dihydro-2H-pyrrolo[3,2-c]pyridazine-7-sulfonamide] | < 100 | > 1000 | < 100 | < 100
14 | Cc1ccc(-c2c(=O)n(-c3ccc4nn(C)cc4c3)nc3c(C#N)cn(CC4CC4)c23)cn1 [Example 104, 5-(cyclopropylmethyl)-2-(2-methyl-2H-indazol-5-yl)-4-(6-methylpyridin-3-yl)-3-oxo-3,5-dihydro-2H-pyrrolo[3,2-c]pyridazine-7-carbonitrile] | < 100 | > 1000 | < 100 | < 100
15 | Cc1nc2ccc(-n3nc4ccn(CC5CC5)c4c(-c4ccc(C(F)F)nc4)c3=O)cc2n1C [Example 140, 5-(cyclopropylmethyl)-4-(6-(difluoromethyl)pyridin-3-yl)-2-(1,2-dimethyl-1H-benzo[d]imidazol-6-yl)-2,5-dihydro-3H-pyrrolo[3,2-c]pyridazin-3-one] | < 100 | 100 to 1000 | < 100 | < 100
16 | CCc1ccc(-c2c(=O)n(-c3ccc4nn(C)cc4c3)nc3ccn(CC4CC4)c23)cn1 [Example 135, 5-(cyclopropylmethyl)-4-(6-ethylpyridin-3-yl)-2-(2-methyl-2H-indazol-5-yl)-2,5-dihydro-3H-pyrrolo[3,2-c]pyridazin-3-one] | < 100 | 100 to 1000 | < 100 | < 100
17 | Cc1nn(CC2CC2)c2c(-c3ccc(Cl)cc3)c(=O)n(-c3ccc4nn(C)cc4c3)nc12 [Example 215, 7-(4-chlorophenyl)-1-(cyclopropylmethyl)-3-methyl-5-(2-methyl-2H-indazol-5-yl)-1,5-dihydro-6H-pyrazolo[4,3-c]pyridazin-6-one] | < 100 | 100 to 1000 | < 100 | < 100
18 | Cc1nc2nn(-c3ccc4nn(C)cc4c3)c(=O)c(-c3ccc(OC(F)F)cc3)c2n1CC1CC1 [Example 191, 5-(cyclopropylmethyl)-4-(4-(difluoromethoxy)phenyl)-6-methyl-2-(2-methyl-2H-indazol-5-yl)-2,5-dihydro-3H-imidazo[4,5-c]pyridazin-3-one] | < 100 | > 1000 | < 100 | < 100
19 | Cn1cc2cc(-n3nc4c(C#N)cn(CC5CC5)c4c(-c4ccc(C(F)F)nc4)c3=O)ccc2n1 [Example 143, 5-(cyclopropylmethyl)-4-(6-(difluoromethyl)pyridin-3-yl)-2-(2-methyl-2H-indazol-5-yl)-3-oxo-3,5-dihydro-2H-pyrrolo[3,2-c]pyridazine-7-carbonitrile] | < 100 | 100 to 1000 | < 100 | < 100
20 | Cn1cc2cc(-n3nc4c(Cl)cn(CC5CC5)c4c(-c4ccc(C5CC5)nc4)c3=O)ccc2n1 [Example 233, 7-chloro-5-(cyclopropylmethyl)-4-(6-cyclopropylpyridin-3-yl)-2-(2-methyl-2H-indazol-5-yl)-2,5-dihydro-3H-pyrrolo[3,2-c]pyridazin-3-one] | < 100 | 100 to 1000 | < 100 | < 100
21 | O=c1c(-c2ccc(OC(F)F)cc2)c2c(ccn2CC2CC2)nn1-c1ccncc1 [Example 226, 5-(cyclopropylmethyl)-4-(4-(difluoromethoxy)phenyl)-2-(pyridin-4-yl)-2,5-dihydro-3H-pyrrolo[3,2-c]pyridazin-3-one] | < 100 | 100 to 1000 | < 100 | < 100
